Results reported in patent US7935853B2, “Micronized composition of a 2,4-disubstituted phenol derivative” (priority 2008, dated 2011).
Values after ≈ are worked out from the molar mass of the structure shown.

How the values were obtained:
LTB4 synthesis = experiment: First phase I trial, plasma concentration vs LTB4 synthesis inhibition (EMAX); assay type: in vivo; settings: Homo sapiens; healthy volunteers, single oral dose, EMAX type relationship; read-out: IC50 (level of drug in plasma eliciting half of maximal LTB4 synthesis inhibition)
Source text: (§1) 2,4,6-triiodophenol is a potent leukotriene B4 (LTB4) synthesis inhibitor that is currently under clinical development. The exact mechanism of action of 2,4,6-triiodophenol is not completely understood but it is known that the inhibition of the enzyme 5-lipoxygenase is involved.

[1] = First phase I clinical trial, single oral dose, safety and pharmacokinetics; assay type: in vivo, human; settings: healthy volunteers
Description: as §1
A preliminary exploratory analysis was done by simulating the typical pharmacokinetic profiles after single and multiple 240, 350, and 500 mg dose regimens based on the pharmacokinetic model and model parameter estimates obtained from the first phase I study, where 2,4,6-triiodophenol was given to healthy volunteers in a single dose ranging from 6 to 1200 mg.

[2] = tested on: arthritis induced by injection of type II collagen in the mouse; experiment: Model of arthritis induced by type II collagen in mice (CIA), hind paw plethysmometry; assay type: in vivo; settings: for Total hind paw volume (sum of both hind paws) / Oedema (difference in paw volume from basal values on day 21) in both hind paws: group mean n=10
Description: The aim of the study was to determine the anti-inflammatory activity of the test item in a model of arthritis induced by injection of type II collagen in the mouse (CIA) and to compare the activity of two different formulations: micronized and non-micronized.
Induction of arthritis was carried out by an initial exposure to type II bovine collagen by a subcutaneous injection at the base of the tail (induction phase).
After a recovery time of 21 days, animals received a booster injection and approximately 4-5 weeks after the first injection there was an immune response with arthritis appearing in the extremities in the majority of the cases.
Four experimental groups were used in the study with 10 animals in each group:
Group D: Positive control: FCA+vehicle B.I.D.
Group E: Micronized Test Item (Micro) 10 mg/kg B.I.D.
Group F: Non-Micronized test item 10 mg/kg B.I.D.
Group G: Reference item: Indomethacin 1 mg/kg Q.D.
The dose administered to groups E and F was 10 mg/kg.
The dose administered to group G was 1 mg/kg.
The doses of the test and reference items were expressed as mg/Kg of compound administered to each animal.
The test and reference items were administered in a solution of methylcellulose (0.25%: vehicle).
The positive control group received the vehicle (methylcellulose 0.25%).
The test and reference items, as well as the vehicle were administered orally at a dosing volume of 5 mls/kg.
The route of administration used was oral by use of an intragastric cannula.
On the day of start of the study each mouse was injected subcutaneously at the base of the tail with a first dose of 0.1 ml of an emulsion of bovine type II collagen (1 mg/mL) in Freund's Complete Adjuvant. Afterwards, on day 21 after this first injection, a second booster injection of type II collagen was administered to all animals. In this occasion the collagen suspension was done using Incomplete Freund's Adjuvant.
Coinciding with the second booster injection on day 21 treatment with the test or reference items was started to the corresponding animals.
Treatment with the test or reference items was carried out for 31 consecutive days (days 21-51 of the experimental period). Additionally, a recovery period was included at the end of the treatment period from day 52 to day 65 in order to evaluate the duration of any anti-inflammatory effect observed once dosing has been terminated.
The animals' hind paw volume was measured by plethysmometry one day before the 1st injection of collagen, again one day before the second (booster) collagen injection (basal values) and then daily after administration of test/reference item until the end of the study. During the recovery period at the end of the study, hind paw volume was measured three times per week.
Additionally the data was also represented graphically, depicting changes in total hind paw volume, as well as oedema (differences from basal (day 21) values).

[3] = day 22, oral treatment days 21-51
[4] = day 23, oral treatment days 21-51
[5] = day 26, oral treatment days 21-51
[6] = day 27, oral treatment days 21-51
[7] = day 29, oral treatment days 21-51
[8] = day 30, oral treatment days 21-51
[9] = day 33, oral treatment days 21-51
[10] = day 34, oral treatment days 21-51
[11] = day 35, oral treatment days 21-51
[12] = day 36, oral treatment days 21-51
[13] = day 37, oral treatment days 21-51
[14] = day 40, oral treatment days 21-51
[15] = day 41, oral treatment days 21-51
[16] = day 42, oral treatment days 21-51
[17] = day 43, oral treatment days 21-51
[18] = day 44, oral treatment days 21-51
[19] = day 47, oral treatment days 21-51
[20] = day 48, oral treatment days 21-51
[21] = day 49, oral treatment days 21-51
[22] = day 50, oral treatment days 21-51
[23] = day 51, oral treatment days 21-51
[24] = day 54, recovery period after treatment days 21-51
[25] = day 56, recovery period after treatment days 21-51
[26] = day 58, recovery period after treatment days 21-51
[27] = day 61, recovery period after treatment days 21-51
[28] = day 63, recovery period after treatment days 21-51
[29] = day 65, recovery period after treatment days 21-51

Structure (SMILES): Oc1c(I)cc(I)cc1I [2,4,6-triiodophenol]
- IC50 (LTB4 synthesis): 16.6 µg/mL (≈ 35.2 µM)
- safety and tolerability ([1]; single oral dose from 6 mg to 1200 mg): very good safety and tolerability profiles
- pharmacokinetic behavior ([1]; single oral dose, at least in the range from 240 to 700 mg): predictable and dose-independent

Structure (SMILES): COc1ccc2c(c1)c(CC(=O)O)c(C)n2C(=O)c1ccc(Cl)cc1 [Indomethacin, reference compound]
- Total hind paw volume (sum of both hind paws) ([2]; day 0, before collagen and treatment): 0.175
- Total hind paw volume (sum of both hind paws) ([2]; day 20, basal, before treatment): 0.227
- Oedema (difference in paw volume from basal values on day 21) in both hind paws [2, 3]: 0.000
- Total hind paw volume (sum of both hind paws) [2, 3]: 0.227
- Oedema (difference in paw volume from basal values on day 21) in both hind paws [2, 4]: 0.000
- Total hind paw volume (sum of both hind paws) [2, 4]: 0.227
- Oedema (difference in paw volume from basal values on day 21) in both hind paws [2, 5]: 0.022
- Total hind paw volume (sum of both hind paws) [2, 5]: 0.249
- Oedema (difference in paw volume from basal values on day 21) in both hind paws [2, 6]: 0.001
- Total hind paw volume (sum of both hind paws) [2, 6]: 0.228
- Oedema (difference in paw volume from basal values on day 21) in both hind paws [2, 7]: 0.011
- Total hind paw volume (sum of both hind paws) [2, 7]: 0.237
- Oedema (difference in paw volume from basal values on day 21) in both hind paws [2, 8]: 0.012
- Total hind paw volume (sum of both hind paws) [2, 8]: 0.239
- Oedema (difference in paw volume from basal values on day 21) in both hind paws [2, 9]: 0.012
- Total hind paw volume (sum of both hind paws) [2, 9]: 0.238
- Oedema (difference in paw volume from basal values on day 21) in both hind paws [2, 10]: 0.013
- Total hind paw volume (sum of both hind paws) [2, 10]: 0.240
- Oedema (difference in paw volume from basal values on day 21) in both hind paws [2, 11]: 0.020
- Total hind paw volume (sum of both hind paws) [2, 11]: 0.246
- Oedema (difference in paw volume from basal values on day 21) in both hind paws [2, 12]: 0.012
- Total hind paw volume (sum of both hind paws) [2, 12]: 0.239
- Oedema (difference in paw volume from basal values on day 21) in both hind paws [2, 13]: −0.005
- Total hind paw volume (sum of both hind paws) [2, 13]: 0.222
- Oedema (difference in paw volume from basal values on day 21) in both hind paws [2, 14]: 0.028
- Total hind paw volume (sum of both hind paws) [2, 14]: 0.255
- Oedema (difference in paw volume from basal values on day 21) in both hind paws [2, 15]: 0.031
- Total hind paw volume (sum of both hind paws) [2, 15]: 0.257
- Oedema (difference in paw volume from basal values on day 21) in both hind paws [2, 16]: 0.021
- Total hind paw volume (sum of both hind paws) [2, 16]: 0.247
- Oedema (difference in paw volume from basal values on day 21) in both hind paws [2, 17]: 0.023
- Total hind paw volume (sum of both hind paws) [2, 17]: 0.250
- Oedema (difference in paw volume from basal values on day 21) in both hind paws [2, 18]: 0.011
- Total hind paw volume (sum of both hind paws) [2, 18]: 0.238
- Oedema (difference in paw volume from basal values on day 21) in both hind paws [2, 19]: 0.028
- Total hind paw volume (sum of both hind paws) [2, 19]: 0.254
- Oedema (difference in paw volume from basal values on day 21) in both hind paws [2, 20]: 0.025
- Total hind paw volume (sum of both hind paws) [2, 20]: 0.252
- Oedema (difference in paw volume from basal values on day 21) in both hind paws [2, 21]: 0.030
- Total hind paw volume (sum of both hind paws) [2, 21]: 0.256
- Oedema (difference in paw volume from basal values on day 21) in both hind paws [2, 22]: 0.030
- Total hind paw volume (sum of both hind paws) [2, 22]: 0.256
- Oedema (difference in paw volume from basal values on day 21) in both hind paws [2, 23]: 0.021
- Total hind paw volume (sum of both hind paws) [2, 23]: 0.248
- Oedema (difference in paw volume from basal values on day 21) in both hind paws [2, 24]: 0.040
- Total hind paw volume (sum of both hind paws) [2, 24]: 0.266
- Oedema (difference in paw volume from basal values on day 21) in both hind paws [2, 25]: 0.052
- Total hind paw volume (sum of both hind paws) [2, 25]: 0.279
- Oedema (difference in paw volume from basal values on day 21) in both hind paws [2, 26]: 0.058
- Total hind paw volume (sum of both hind paws) [2, 26]: 0.285
- Oedema (difference in paw volume from basal values on day 21) in both hind paws [2, 27]: 0.058
- Total hind paw volume (sum of both hind paws) [2, 27]: 0.28
- Oedema (difference in paw volume from basal values on day 21) in both hind paws [2, 28]: 0.064
- Total hind paw volume (sum of both hind paws) [2, 28]: 0.29
- Oedema (difference in paw volume from basal values on day 21) in both hind paws [2, 29]: 0.076
- Total hind paw volume (sum of both hind paws) [2, 29]: 0.30
- effect on hind paw oedema (in words) ([2]; test item 10 mg/kg BID, Indomethacin 1 mg/kg Q.D, oral): significant anti-inflammatory response
